Experimental data as given in patent publication US20130303564A1, “METHOD FOR TREATING A NEURODEGENERATIVE DISORDER” (RUSH UNIVERSITY MEDICAL CENTER, priority 2012, published 2013).

Key:
[1] = test system: TNF-α; conditions: different concentrations, 6 h preincubation, 1 μM MPP+ 5 h
Description: (§1) Mouse BV-2 microglial cells were treated with different concentrations of NaPB for 6 h followed by stimulation with 1 μM. MPP under serum-free condition. After 5 h of stimulation, the mRNA expression of iNOS, IL-1β and TNF-α was monitored by semi-quantitative RT-PCR (A) and quantitative real-time PCR (C, iNOS; D, IL-1β; E, TNF-α). After 24 h of stimulation, the protein expression of iNOS was monitored by Western blot (B).
(§2) Glial inflammation is a critical component of PD pathogenesis which is mirrored in MPTP mouse models. The neurotoxic effect of MPTP depends on its conversion into MPP+. In glial cells, MAO-B converts MPTP to MPP+, which then leads to glial activation. MPP+ is able to stimulate the microglial expression of inflammatory molecules including NO, TNF-α, IL-1β, and IL-6. Although, a well characterized receptor for MPP+ was not known in microglial cells until recent past, low dose of MPP+ stimulates microglial activation via the engagement of cysteinyl leukotriene receptor (CysLT1R), MPP+ dependent activation of CysLT1R and its subsequent translocation from plasma membrane to cytosol plays a critical role in the process of microglial activation. Therefore, we investigated MPP+ could induce the expression of proinflammatory molecules microglia and if NaPB suppressed such induction.
(§3) Real-time PCR analysis: It was performed in the ABI-Prism7700 sequence detection system (Applied Biosystems, Foster City, Calif.) using TaqMan Universal Master mix and optimized concentrations of FAM-labeled probes and primers.

[2] = test system: iNOS
Description: as §1, §2, §3

[3] = test system: p21^ras; conditions: 500 μM preincubation
Description: A) Mouse BV-2 microglial cells preincubated with different concentrations of FTI and GGTI were stimulated with LPS for 60 min followed by monitoring the activation of NF-κB by EMSA. B) Cells preincubated with different concentrations of FTI and GGTI were stimulated with LPS for 10 min followed by monitoring the production of superoxide. […] C) Cells were transfected with Δp21^ras, Δp21^rac or an empty vector using Lipofectamine Plus. Twenty-four hour after transfection, cells were stimulated with LPS followed by monitoring superoxide production at 15 and 30 ‘rain of stimulation. ^ap<0.001 vs control; ^bp<0.001 vs LPS-15 min; ^cp<0.001 vs LPS-30 min. D) Cells preincubated with 500 μM NaPB were stimulated with LPS. At different time points, activation of p21^ras and p21^rac was monitored. Results represent three independent experiments.
Next, we examined the effect of NaPB on the activation of p21^ras and p21^rac.
Activation of p21^ras and p21^rac: Activation of p21^ras was monitored. Briefly, after 6 h of MPTP insult, ventral midbrain was dissected out and frozen immediately on dry ice. […] Then the amount of activated p21^ras was determined in GST beads by a Western blot using a p21^ras specific antibody.

[4] = test system: NF-κB; assay: DNA-binding activity of NF-κB by EMSA in BV-2 microglial cells; type: cell-based, mouse; conditions: NaPB different concentrations, 6 h preincubation, LPS 1 h
Description: Results represent three independent experiments.
Activation of NF-κB was monitored by IκBαphosphorylation, DNA binding activity by EMSA and transcriptional activity by reporter assays.
Electrophoretic Mobility Shift Assay (EMSA): Nuclear extracts were prepared and EMSA was carried out. […] Six-micrograms of nuclear extract was incubated with binding buffer and with IR-labeled probe for 20 min. Subsequently, samples were separated on a 6% polyacrylamide gel in 0.25× TBE buffer (Tris borate-EDTA) and analyzed by Odyssey Infrared Imaging System (LI-COR Biosciences).

[5] = test system: p21^ras
Description: A) Mice were treated with NaPB (200 mg/kg body wt/d.) via gavage from 1 d prior to MPTP injection. Six h after the last injection of MPTP, activation of p21^ras and p21^rac was monitored in ventral midbrain tissues. Experiment was repeated three times each time using two animal in each group. […] Results represent three independent experiments.
A) Mice were treated with NaPB (200 mg/kg body wt/d) via gavage from 1 d prior to MPTP injection. At different h of MPTP insult, nigral punches from mice were pooled together and analyzed for the activation of p21′ (A) and the expression of iNOS mRNA (B, RT-PCR; C, real-time PGR). Experiments were repeated three times each time using two animals in each group. ^ap<0.001 vs control (Oh)-iNOS.
Therefore, in order to delineate whether glial activation-associated events happen before or after the loss of dopaminergic neurons, we performed a time-course study to monitor nigral activation of p21^ras and expression of iNOS and striatal loss of dopamine in MPTP-intoxicated mice, Micropunches from the nigra were used for monitoring p21^ras and iNOS.
Animals and MPTP intoxications: Six- to eight-week old C57BL/6 mice were purchased from Harlan, Indianapolis, Ind. […]
Activation of p21^ras and p21^rac: Activation of p21^ras was monitored. […] Then the amount of activated p21^ras was determined in GST beads by a Western blot using a p21^ras specific antibody.

[6] = test system: microglia; conditions: any of the concentrations tested (data not shown)
Description: (§4) Activated microglia and astroglia are known to produce excessive amount of NO having the potential of damaging neurons in neurodegenerative disorders. We investigated the effect of NaPB on the expression of iNOS in microglia. LPS is a prototype inducer of various proinflammatory molecules in different cell types including mouse microglia. Therefore, primary mouse microglia preincubated with different doses of NaPB for 6 h were stimulated with LPS under serum-free condition. […] We used trichostatin A (TSA) and sodium butyrate (NaBu) for this purpose.

[7] = test system: primary mouse microglia; assay: LPS-induced NO (nitrite) production in primary mouse microglia; type: cell-based
Description: Primary mouse microglia were treated with different concentrations of NaPB for 6 h followed by stimulation with LPS under serum-free condition. After 24 h of stimulation, concentrations of nitrite were measured in supernatants (A) and the level of iNOS protein was monitored in cells by Western blot (B). […] After 5 h of stimulation, the expression of iNOS mRNA was monitored by semi-quantitative RT-PCR (C). Cells preinctibated with different concentration of trichostatin A (TSA) and sodium butyrate (NaBu) for 6 h were stimulated with LPS for 24 h under serum-free condition followed by monitoring the level of nitrite in supernatants (p). […] Primary human astroglia isolated from fetal brain tissues were treated with different concentrations of NaPB for 6 h followed by stimulation with IL-1β under serum-free condition. After 48 h of stimulation, concentrations of nitrite (E) were measured in supernatants. Human astroglia plated at 70-80% confluence in 12-well plates were co-transfected with 0.25 μg of phiNOS(7.2)Luc and 12.5 ng of pRL-TK using the Lipofectamine-Plus (Invitrogen). Twenty-four h after transfection, cells received NaPB. After 6 h of incubation, cells were stimulated with IL-1β (20 ng/ml) for 12 h. Firefly (ff-Luc) and Renilla (r-Luc) luciferase activities were obtained by analyzing the total cell extract (F).
as §4
Isolation of Mouse Microglia: Microglia were isolated from mixed glial cultures. Briefly, on day 7-9, the mixed glial cultures were washed three times with Dulbecco's modified Eagle's medium/F-12 and subjected to shaking at 240 rpm for 2 h at 37° C. on a rotary shaker. The floating cells were washed and seeded on to plastic tissue culture flasks and incubated at 37° C. for 1 h. The attached cells were seeded onto new plates for further studies. […] Mouse BV-2 microglial cells (kind gift from Virginia Bocchini of Universityof Perugia) were also maintained and induced as indicated above.

[8] = test system: BV-2 microglial cells; conditions: 500 μM, 6 h, 1 μM MPP+ 15 min
Description: Cells were treated with 500 μM NaPB for 6 h followed by stimulation with 1 μM MPP+. At 15 min of stimulation, the generation of ROS was monitored by carboxy-H2DCFDA (A).
We examined if Parkinsonian toxin MPP+ induced the production of ROS from microglia and if NaPB could attenuate such ROS production. To monitor the generation of intracellular ROS in BV-2 microglial cells, we used a cell-permeant fluorescent probe.
Monitoring microglial ROS production: Cells, cultured in 8-well chamber slides, were treated with MPP+ under serum-free condition. At different time points of stimulation, supernatants were removed and cells were washed with Hank's buffered salt solution (HBSS) followed by addition of 100 μl of 25 μM carboxy-H2DCFDA to each well for 30 min of incubation. During the last five minutes of incubation, Hoechst 33342 was added to each well at a dilution of 1:1000 for staining nuclei. Cells were then washed with HBSS, mounted with DPX mounting media and observed under an Olympus 1×81 fluorescent microscope.

[9] = test system: chronic MPTP mouse model of PD; conditions: oral 100 mg/kg body wt/d from the third injection of MPTP/probenecid
Description: A) Six to eight week old male C57BL/6 mice received 10 injections of MPTP (s.c.; 25 mg/kg body weight) together with 10 injections of probenecid (i.p.; 250 mg/kg body weight) for 5 weeks. Control group of mice received only saline. One group of mice were treated with NaPB (100 mg/kg body weight/d) via gavage from the 3rd injection of MPTP/probenecid and continued for 1 week thereafter. Mice were tested for different motor tasks [horizontal activity (C), number of movements (D), rearing (E), and stereotypy (F)] one week after the last injection of MPTP followed by measuring the level of DA in striatum (B). Data are means+SEM of eight mice per group. ^ap<0.001 vs saline; ^bp<0.001 vs MPTP; p<0.05 vs saline; ^dp<0.05 vs MPTP.
We examined if NaPB was capable of protecting neurons in a chronic model (FIG. 10A). […] We initiated oral NaPB treatment (100 mg/kg body wt/d) from the third injection of MPTP/probenecid (FIG. 10A). […]
Behavioral analyses: Two types of behavioral experiments were conducted. This included open field experiment for locomotor activity and rotorod experiment for feet movement. .Locomotor activity was measured after 7 d of the last dose of MPTP injection in Digiscan Monitor (Omnitech Electronics, Inc., Columbus, Ohio). […] [sequence] software was used to analyze and store horizontal and vertical activity data, which were monitored automatically by infra-red beams.

[10] = test system: cholesterol; assay: Serum cholesterol in male C57/BL6 mice; type: in vivo, mouse; conditions: 200 mg/kg body wt/d, oral, 7 d
Description: Mice (6-8 wk old) were treated with NaPB (200 mg/kg body wt/d) and pravastatin (1 mg/kg body wt/d) separately via gavage for 7 d followed by quantification of cholesterol in serum using a simple fluorometric method.
Intermediates of the mevalonate pathway play a role in the expression of iNOS and proinflammatory cytokines in glial cells. End product of the mevalonate pathway is cholesterol and therefore, we investigated if NaPB had any effect on the level of cholesterol in vivo in mice.
Assay of cholesterol in serum: Total cholesterol was quantified irr serum by using an Amplex Red Cholesterol Assay kit from Invitrogen. Briefly, cholesterol was oxidized by cholesterol oxidase to yield H2O2, which then reacted with 10-acetyl-3,7 dihydroxyphenoxazine (Amplex Red). In the presence of horseradish peroxidase (HRP), this Amplex Red:H2O2 complex produced highly fluorescent resorufin, which was detected by fluorometry.

## sodium phenylbutyrate [NaPB]
[1]
  MPP+-induced expression of TNF-α mRNA: inhibited
[2]; 6 h preincubation, 1 μM MPP+ 5 h
  MPP+-induced iNOS mRNA expression: suppressed
[2]; 6 h preincubation, 1 μM MPP+ 24 h, Western blot
  MPP+-induced iNOS protein expression: suppressed
[2]; RasV12-transfected cells, NaPB 6 h
  RasV12-induced expression of iNOS mRNA: attenuated
[3]
  LPS-induced activation of p21^ras: markedly suppressed
[4]
  LPS-induced DNA-binding activity of NF-κB: inhibited
[5]; 200 mg/kg body wt/d gavage from 1 d prior to MPTP, all time points tested (up to 24 h)
  activation of p21^ras in the nigra, time course: markedly inhibited
[5]; 200 mg/kg body wt/day gavage from 1 d prior to MPTP, 6 h after last MPTP
  MPTP-induced activation of p21^ras in the nigra: much decreased activation
[6]
  toxicity to microglia (MTT): not toxic
[7]; 1 or 2 h preincubation (data not shown)
  inhibition of LPS-induced production of NO: not sufficient
[7]; higher concentrations (>200 μM), 6 h preincubation
  inhibition of LPS-induced production of NO: markedly suppressed
[7]; lower concentration (100 μM), 6 h preincubation
  inhibition of LPS-induced production of NO: not effective
[8]
  MPP+-induced production of intracellular ROS: strongly inhibited
[9]
  locomotor activities (horizontal activity, number of movements, rearing, stereotypy): improved
[10]
  reduction of the level of cholesterol in serum: about 30%
